For the assay, the target named is T1, HIV-integrase (Human immunodeficiency virus type 1 group M subtype B, UniProt P12497).
T1 construct: Recombinant integrase (0.26 ng) was incubated with the beads
Kind of assay: HIV-Integrase Inhibition Activity (SPA bead strand transfer assay). Conditions: recombinant integrase, biotin labeled substrate DNA on SPA beads, P33 labeled target DNA. It counts as biochemical. As for the experimental part: HIV-Integrase InhibitionActivity. To evaluate in-vitro activity against HIV-integrase, 5 pmole of biotin labeled substrate DNA was bound to 100 μg of Streptavidin coated PVT SPA beads (Amersham Pharmacia Biotech). Recombinant integrase (0.26 ng) was incubated with the beads for 90 min at 37° C. Unbound enzyme was removed by washing the complex followed by addition of inhibitors and 0.1 fmol of P33 labeled target DNA. The reaction was stopped by adding EDTA to a final concentration of 10 mM. Samples were counted in TopCountNXT (Packard) and the CPM was used as a measure of integration. The reaction condition was as described in A. Engelman and R. Craigie, J. Virol 69, 5908–5911 (1995). The sequences of substrate and target DNA were described in Nucleic Acid Research 22, 1121–1122 (1994).
As for `CC1(C)CCn2c1nc(C(=O)NCc1ccc(F)cc1)c(O)c2=O` [Example 1, N-(4-Fluorobenzyl)-3-hydroxy-8,8-dimethyl-4-oxo-4,6,7,8-tetrahydropyrrolo[1,2-a]pyrimidine-2-carboxamide], the IC50 was in the range of 2 to 9 nM.
The result for `CNC(=O)c1cc(F)ccc1CNC(=O)c1nc2n(c(=O)c1O)CCC2(C)C` [Example 2, N-(4-Fluoro-2-(methylcarbamoyl)benzyl)-3-hydroxy-8,8-dimethyl-4-oxo-4,6,7,8-tetrahydropyrrolo[1,2-a]pyrimidine-2-carboxamide] reads 10 to 49000 nM; that for `CC1(C)CCn2c1nc(C(=O)NCc1ccc(F)cc1-n1cncn1)c(O)c2=O` [Example 3, N-(4-fluoro-2-(1H-1,2,4-triazol-1-yl)benzyl)-3-hydroxy-8,8-dimethyl-4-oxo-4,6,7,8-tetrahydropyrrolo[1,2-a]pyrimidine-2-carboxamide], 2 to 9 nM; that for `CC1(C)CCCn2c1nc(C(=O)NCc1ccc(F)cc1)c(O)c2=O` [Example 4, 3-Hydroxy-9,9-dimethyl-4-oxo-6,7,8,9-tetrahydro-4H-pyrido[1,2-a]pyrimidine-2-carboxylic acid 4-fluoro-benzylamide], 2 to 9 nM.
Next, `CNC(=O)c1cc(F)ccc1CNC(=O)c1nc2n(c(=O)c1O)CCCC2(C)C` [Example 5, N-(4-Fluoro-2-(methylcarbamoyl)benzyl)-3-hydroxy-9,9-dimethyl-4-oxo-6,7,8,9-tetrahydro-4H-pyrido[1,2-a]pyrimidine-2-carboxamide]: 2 to 9 nM.
Next, `CC1(C)CCCn2c1nc(C(=O)NCc1ccc(F)cc1-n1cncn1)c(O)c2=O` [Example 6, N-(4-Fluoro-2-(1H-1,2,4-triazol-1-yl)benzyl)-3-hydroxy-9,9-dimethyl-4-oxo-6,7,8,9-tetrahydro-4H-pyrido[1,2-a]pyrimidine-2-carboxamide]: 2 to 9 nM; `O=C(NCc1ccc(Cl)c(Cl)c1)c1nc2n(c(=O)c1O)CCC=C2c1ccccc1` [Example 7, N-(3,4-Dichlorobenzyl)-3-hydroxy-4-oxo-9-phenyl-6,7-dihydro-4H-pyrido[1,2-a]pyrimidine-2-carboxamide]: 2 to 9 nM; `O=C(NCc1ccc(F)cc1)c1nc2n(c(=O)c1O)CCC=C2c1ccccc1` [Example 8, N-(4-Fluorobenzyl)-3-hydroxy-4-oxo-9-phenyl-6,7-dihydro-4H-pyrido[1,2-a]pyrimidine-2-carboxamide]: 2 to 9 nM.
`CNC(=O)c1cc(F)ccc1CNC(=O)c1nc2n(c(=O)c1O)CCC=C2c1ccccc1` [Example 9, N-(4-Fluoro-2-(methylcarbamoyl)benzyl)-3-hydroxy-4-oxo-9-phenyl-6,7-dihydro-4H-pyrido[1,2-a]pyrimidine-2-carboxamide]: the IC50 lay in the range of 2 to 9 nM.
The result for `O=C(NCc1ccc(F)cc1)c1nc2n(c(=O)c1O)CCC=C2c1cccnc1` [Example 10, N-(4-Fluorobenzyl)-3-hydroxy-4-oxo-9-(pyridin-3-yl)-6,7-dihydro-4H-pyrido[1,2-a]pyrimidine-2-carboxamide] reads 2 to 9 nM; that for `CNC(=O)c1cc(F)ccc1CNC(=O)c1nc2n(c(=O)c1O)CCC=C2c1cccnc1` [Example 11, N-(4-Fluoro-2-(methylcarbamoyl)benzyl)-3-hydroxy-4-oxo-9-(pyridin-3-yl)-6,7-dihydro-4H-pyrido[1,2-a]pyrimidine-2-carboxamide], 2 to 9 nM; that for `CC1(C)CCCCn2c1nc(C(=O)NCc1ccc(F)cc1)c(O)c2=O` [Example 12, N-(4-Fluorobenzyl)-3-hydroxy-10,10-dimethyl-4-oxo-4,6,7,8,9,10-hexahydropyrimido[1,2-a]azepine-2-carboxamide], 2 to 9 nM.
For `CC1(C)CCCCn2c1nc(C(=O)NCc1ccc(F)cc1-n1cncn1)c(O)c2=O` [Example 13, N-(4-Fluoro-2-(1H-1,2,4-triazol-1-yl)benzyl)-3-hydroxy-10,10-dimethyl-4-oxo-4,6,7,8,9,10-hexahydropyrimido[1,2-a]azepine-2-carboxamide], the IC50 fell in the range of 2 to 9 nM.

The term IC50 denotes the concentration at which inhibition is half-maximal.
